Measured values as given in article PMC12687449, “Membrane disruption attenuates agonist potency in prostanoid receptors” (Biochemical Journal, 2025).

Experiments:
[1] = target: ETB receptor (wildtype) (human) (UniProt P24530)
[2] = target: T1, TP receptor conformation sensor (Homo sapiens, UniProt P21731); test: FRET-based TP receptor conformation sensor, single-cell measurements in HEK293 cells; details: 1 µM U-46619, reference 8 µM U-46619
T1 sequence (P21731 1-311 limits assumed): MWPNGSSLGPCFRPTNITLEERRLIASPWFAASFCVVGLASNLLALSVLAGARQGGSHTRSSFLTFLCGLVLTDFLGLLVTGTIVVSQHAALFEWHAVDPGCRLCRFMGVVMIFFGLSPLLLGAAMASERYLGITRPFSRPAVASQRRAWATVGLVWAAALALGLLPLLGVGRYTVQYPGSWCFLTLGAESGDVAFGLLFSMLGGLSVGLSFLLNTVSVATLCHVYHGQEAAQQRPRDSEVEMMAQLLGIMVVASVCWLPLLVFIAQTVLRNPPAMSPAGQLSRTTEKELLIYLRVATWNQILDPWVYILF

[3] = target: T2, DP2 receptor (Homo sapiens, UniProt Q9Y5Y4); test: BRET-based G protein activation, wildtype DP2 receptor + Gαo biosensor in HEK293T cells; format: cell-based
T2 construct: host or cells: HEK293T (transient)
T2 sequence (Q9Y5Y4 1-395): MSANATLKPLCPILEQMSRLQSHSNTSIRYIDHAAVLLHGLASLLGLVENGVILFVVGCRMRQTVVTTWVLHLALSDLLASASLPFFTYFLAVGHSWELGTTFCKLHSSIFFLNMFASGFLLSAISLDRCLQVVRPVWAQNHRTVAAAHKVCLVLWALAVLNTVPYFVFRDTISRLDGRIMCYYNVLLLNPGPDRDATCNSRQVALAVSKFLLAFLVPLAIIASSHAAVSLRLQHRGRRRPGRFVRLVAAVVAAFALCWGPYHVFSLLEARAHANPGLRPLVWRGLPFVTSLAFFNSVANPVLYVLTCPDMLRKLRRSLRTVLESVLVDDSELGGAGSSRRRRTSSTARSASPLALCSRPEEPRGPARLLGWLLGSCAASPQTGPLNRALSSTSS
Procedure: Two days before BRET measurements were performed, HEK293T cells were transiently transfected with 3 µg of cDNAs containing TP receptor, ETB receptor, DP2 receptor, or S1P3 receptor and 3 µg of cDNAs containing Gβ3-T2A-cpVenus-Gγ9-IRES-Gαq-NLuc or Gβ3-T2A-cpVenus-Gγ9-IRES-Gαo1-NLuc using linear 25 kDa PEI reagent (polyethylenimine, PolyScience Inc., Hirschberg an der Bergstraße, Germany). The ratio between DNA and PEI was 1:3, and 50 µl serum-free DMEM was added per 1 µg DNA. The same amount of serum-free DMEM was also added separately to the PEI solution. DNA-DMEM and PEI-DMEM mixtures were incubated for 5 minutes, followed by incubation of the final mixture for another 10 minutes. […]
Two days before the actual measurement, HEK293T cells were transiently transfected and seeded on microplates. […] The measurements were performed using a Spark 20M plate reader (Tecan) at 37°C. Initially, the cells were measured for the baseline emission ratio. After the baseline measurement, 20 µl of external or internal buffer containing differing concentrations of either U-46619, 4-Ala ET-1, PGD,2 or S1P or external or internal buffer alone were added to the cells and measured. […] The cells were measured from the top and the donor luminescence (NLuc) was recorded at 415 to 470 nm and the acceptor luminescence (cpVenus) at 520 to 590 nm. Data were recorded using SparkControl^TM software. […]

[4] = target: T3, DP2 receptor conformation sensor (Homo sapiens, UniProt Q9Y5Y4); test: FRET-based DP2 receptor conformation sensor, multiple-cell measurements in HEK293 cells or membrane fragments
T3 sequence (Q9Y5Y4 1-231 limits assumed): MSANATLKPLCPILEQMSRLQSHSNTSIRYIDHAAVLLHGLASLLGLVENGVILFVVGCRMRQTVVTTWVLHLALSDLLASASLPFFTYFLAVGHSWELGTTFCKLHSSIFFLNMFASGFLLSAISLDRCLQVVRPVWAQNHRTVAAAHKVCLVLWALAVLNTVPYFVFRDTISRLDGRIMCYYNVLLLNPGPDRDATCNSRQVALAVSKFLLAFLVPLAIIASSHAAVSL
T3 sequence (Q9Y5Y4 248-308 limits assumed): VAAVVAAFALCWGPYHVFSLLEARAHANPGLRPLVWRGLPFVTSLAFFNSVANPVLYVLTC
Procedure: (§1) HEK293 cells stably expressing the EP4 receptor, IP receptor, or DP2 receptor conformation sensor were seeded on 15 cm Ø dishes and grown until optical confluence. The cells were washed once with Dulbecco’s PBS (Capricorn Scientific GmbH), without Ca & Mg and Phenol Red (phosphate-buffered saline, PBS). After adding 5 ml PBS to the cells, the dish was treated with liquid nitrogen until the solution was visibly frozen. These dishes were stored at −80°C until the measurements were carried out. On the day of the measurement, the dishes were removed from the freezer and stored at room temperature until the buffer solution had thawed. The material was collected with a cell scraper and centrifuged (5000 rpm/5 min). […]
Intact HEK293 cells stably expressing the EP4 receptor, IP receptor, or DP2 receptor conformation sensors were counted, adjusted to 100,000–120,000 cells per well, and seeded on poly-L-lysine coated microplates one day before measurement. […]
We used a Spark 20M plate reader (Tecan, Männedorf, Switzerland) for multiple-cell FRET measurements of intact cells or membrane fragments. The cells were measured from the bottom and the donor fluorescent protein (mT2) was excited at 430 nm. First, the cells were measured for the baseline emission ratio. […] The emitted donor fluorescence (mT2) and acceptor fluorescence (eYFP) were recorded at 485 nm and 535 nm, respectively. […]

[5] = target: S1P3 receptor (Homo sapiens, UniProt Q99500); test: BRET-based G protein activation, wildtype S1P3 receptor + Gαq biosensor in HEK293T cells; format: cell-based
S1P3 receptor, sequence (Q99500 whole entry): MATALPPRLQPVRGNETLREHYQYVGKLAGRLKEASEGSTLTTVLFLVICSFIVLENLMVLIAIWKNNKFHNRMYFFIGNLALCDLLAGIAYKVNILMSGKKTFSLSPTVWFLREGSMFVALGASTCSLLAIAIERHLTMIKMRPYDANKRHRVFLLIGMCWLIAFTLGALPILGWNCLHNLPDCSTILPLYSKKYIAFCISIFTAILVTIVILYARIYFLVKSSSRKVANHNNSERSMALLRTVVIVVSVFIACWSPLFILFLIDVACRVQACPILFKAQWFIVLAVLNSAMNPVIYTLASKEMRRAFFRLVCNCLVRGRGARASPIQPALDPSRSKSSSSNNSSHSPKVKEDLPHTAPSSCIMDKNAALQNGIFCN
From the text: […] Afterward, the cells were washed five times for single-cell FRET measurements or three times for BRET measurements with internal buffer.
Concentration-response curves were fitted in GraphPad Prism 8 using nonlinear regression (log(agonist) vs. response - variable slope (four parameters)) with the hillslope set to 1, the bottom constrained to 0 and the top to 1 using the following equation: […]

[6] = target: EP4 receptor conformation sensor (Homo sapiens, UniProt P35408); test: FRET-based EP4 receptor conformation sensor stably expressed in HEK293 cells (intact, saponin-permeabilized, membrane fragments); format: cell-based
EP4 receptor conformation sensor, sequence (P35408 1-332 limits assumed): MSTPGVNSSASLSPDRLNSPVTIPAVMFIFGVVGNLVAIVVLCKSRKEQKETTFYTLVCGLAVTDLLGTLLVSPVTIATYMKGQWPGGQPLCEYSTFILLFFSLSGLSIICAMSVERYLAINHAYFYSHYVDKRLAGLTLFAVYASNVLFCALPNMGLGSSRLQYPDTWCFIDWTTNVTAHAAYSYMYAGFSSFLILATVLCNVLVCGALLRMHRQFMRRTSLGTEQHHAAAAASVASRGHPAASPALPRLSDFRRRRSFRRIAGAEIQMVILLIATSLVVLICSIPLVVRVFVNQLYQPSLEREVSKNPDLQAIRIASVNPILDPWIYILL
Procedure: (§2) The cells were washed once with external buffer and subsequently incubated 2 minutes for single-cell FRET measurements or 10 minutes for BRET measurements in 0.05% saponin (AppliChem, Darmstadt, Germany) dissolved in internal buffer. Afterward, the cells were washed five times for single-cell FRET measurements or three times for BRET measurements with internal buffer.
as §1, with “min). The supernatant was discarded, the pellet containing the membrane fragments was resuspended with external buffer containing 0.1% BSA and seeded on microplates.” for “min).”

[7] = target: T4, EP2 receptor conformation sensor (Homo sapiens, UniProt P43116, DEL238-250); test: FRET-based EP2 receptor conformation sensor, single-cell measurements in HEK293 cells; details: saponin-permeabilized cells, 3000 nM PGE2, reference 20 µM PGE2
T4 construct: mT2 insertion and truncation after Q349; expressed in transfected cells
T4 sequence (P43116 with tags, fused parts or gaps DEL238-250): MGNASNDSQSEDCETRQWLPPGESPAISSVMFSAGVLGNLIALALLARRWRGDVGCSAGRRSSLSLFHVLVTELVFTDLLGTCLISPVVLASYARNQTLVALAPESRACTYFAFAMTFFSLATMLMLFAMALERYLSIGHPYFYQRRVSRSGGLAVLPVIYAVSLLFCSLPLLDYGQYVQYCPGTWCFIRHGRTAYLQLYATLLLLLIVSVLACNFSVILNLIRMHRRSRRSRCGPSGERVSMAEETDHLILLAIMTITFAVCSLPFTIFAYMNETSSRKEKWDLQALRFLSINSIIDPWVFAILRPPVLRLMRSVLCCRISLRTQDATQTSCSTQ
Procedure: as §2
The coverslips loaded with stably transfected HEK293 cells containing either the FFA3 receptor, α2A-AR CAM, or ETB receptor conformation sensors were clamped in an Attofluor^TM cell chamber and were washed once with external buffer. Afterward, they were side by side either permeabilized or directly measured at room temperature by the use of an inverted microscope (Elipse Ti2, Nikon, Düsseldorf, Germany), equipped with a 100× oil immersion objective (Plan Apo λ 100 x/1.45 oil ∞/0.17 WD 0.13, Nikon, Düsseldorf, Germany) and dual excitation and dual emission imaging capabilities. […] The fluorescence emission of mT2 and the respective YFP variant was simultaneously collected by a second beamsplitter (488, Chroma, Bellows Falls, Vermont, U.S.A.) and two emission filters (mT2: 474/27, Chroma; YFP: 544/23, Chroma). […] For all single-cell FRET experiments, cells were prospectively selected based on a continuous plasma-membrane fluorescence rim and appropriate fluorescence distribution to ensure a PM-dominant receptor signal. […]

[8] = saponin-permeabilized cells with 1 µM GTP

ETB receptor (wildtype) (human), sequence (P24530 27-442): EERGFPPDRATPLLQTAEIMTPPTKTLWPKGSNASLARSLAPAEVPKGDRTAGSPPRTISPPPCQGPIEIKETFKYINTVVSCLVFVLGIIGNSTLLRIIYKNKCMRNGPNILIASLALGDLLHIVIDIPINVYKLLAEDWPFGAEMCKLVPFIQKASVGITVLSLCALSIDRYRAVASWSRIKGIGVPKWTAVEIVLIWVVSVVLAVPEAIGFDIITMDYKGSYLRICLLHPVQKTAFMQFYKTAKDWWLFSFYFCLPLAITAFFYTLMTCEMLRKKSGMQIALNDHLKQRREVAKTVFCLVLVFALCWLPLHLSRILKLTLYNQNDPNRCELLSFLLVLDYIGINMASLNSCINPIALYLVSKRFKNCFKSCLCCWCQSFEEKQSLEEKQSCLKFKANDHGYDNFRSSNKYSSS

## 4-Ala endothelin-1 (peptide)
[1]
  BRET-based Gαq biosensor activation in HEK293T cells, concentration-response to 4-Ala ET-1: change of agonist potency in saponin-permeabilized cells with 1 µM GTP against intact cells (Figure 4F): 15 fold

## CCCCCC(O)/C=C/C1C2CC(CO2)C1C/C=C\CCCC(=O)O (stereo not drawn) [U-46619, 9,11-dideoxy-9α,11α-methanoepoxy-prosta-5Z,13E-dien-1-oic acid]
[2]; intact cells
  response to the test concentration (about 10 times EC50) normalized to saturating concentration: full response
[2]; saponin-permeabilized cells
  response to the test concentration normalized to saturating concentration: 59% ± 1

## CCCCC[C@H](O)/C=C/[C@H]1C(=O)C[C@H](O)[C@@H]1C/C=C\CCCC(=O)O [PGD2, (Z)-7-[(1R,2R,5S)-5-hydroxy-2-[(E,3S)-3-hydroxyoct-1-enyl]-3-oxocyclopentyl]hept-5-enoic acid]
[3]; intact HEK293T cells
  EC50: 0.000562 µM
[3]; [8]
  EC50: 0.0204 µM
[4]; intact cells
  response to the agonist: strong response
[4]; membrane fragments
  response to the agonist: almost no response

## CCCCCCCCCCCCC/C=C/[C@@H](O)[C@@H](N)COP(=O)(O)O [S1P, Sphingosine-1-phosphate]
[5]; intact HEK293T cells
  EC50: 0.0282 µM
[5]; [8]
  EC50: 0.00055 µM

## CCCCC[C@H](O)/C=C/[C@H]1[C@H](O)CC(=O)[C@@H]1C/C=C\CCCC(=O)O [PGE2, (Z)-7-[(1R,2R,3R)-3-hydroxy-2-[(E,3S)-3-hydroxyoct-1-enyl]-5-oxocyclopentyl]hept-5-enoic acid]
[6]; HEK293, read-out: normalized response to 10 times EC50
  activation at 0.3 µM: 53%
[6]; saponin-permeabilized cells, internal buffer supplemented with 5 mM ATP and 25 µM GTP
  response to 10 times EC50: 56% ± 1
[6]; saponin-permeabilized cells, internal buffer, 300 nM PGE2, reference 20 µM PGE2
  response to the test concentration normalized to saturating concentration: 56% ± 1
[7]
  response to the test concentration normalized to saturating concentration: about 51% ± 6
